Among the data in patent publication US8017656B2, “Organic sulfur compounds and use thereof” (Sumitomo Chemical Company, Limited, priority 2005, dated 2011) are pest or weed control values, retold here.

Where two headings read alike, the source gives them in different places.

Assay type in all cases: in vivo
For one experiment, the system named is Musca domestica. Kind of experiment: Test Example 2: filter paper/sucrose bait test against housefly imagoes. As to conditions: read-out: rate of dead pests. On the procedure:
On the bottom of a polyethylene cup having a diameter of 5.5 cm, a filter paper having the same diameter was laid, and 0.7 ml of the above test solution was added dropwise on the filter paper, followed by putting 30 mg of sucrose on it uniformly as a bait. Ten female Musca domestica imagoes were set free in the polyethylene cup and covered it with a lid. After 24 hours, the number of surviving and dead Musca domestica was examined and the rate of dead pests was calculated.

Another experiment deals with Blattella germanica. In words: Test Example 3: filter paper/sucrose bait test against German cockroach imagoes. As to conditions: Blattella germanica, 144 h, read-out: rate of dead pests. The procedure: On the bottom of a polyethylene cup having a diameter of 5.5 cm, a filter paper having the same diameter was laid, and 0.7 ml of the above test solution was added dropwise on the filter paper, followed by putting 30 mg of sucrose on it uniformly as a bait. Two male Blattella germanica imagoes were set free in the polyethylene cup and covered it with a lid. After 6 days, the number of surviving and dead Blattella germanica was examined and the rate of dead pests was calculated.

The subject of the next experiment is Culex pipiens pallens. In words: Test Example 4: mosquito larvae test in treated water. As to conditions: 24 h, read-out: rate of dead pests. The procedure:
0.7 ml of above test solution was added to 100 ml of ion exchanged water (active ingredient concentration: 3.5 ppm). Twenty last-instar larvae of Culex pipiens pallens were set free in the solution. After one day, the number of surviving and dead Culex pipiens pallens was examined and the rate of dead pests was calculated.

Setting [1] is: 500 ppm test solution, 0.7 ml on filter paper with 30 mg sucrose, ten female imagoes, after 24 hours.
Setting [2] is: 500 ppm test solution, 0.7 ml on filter paper with 30 mg sucrose, two male imagoes, after 6 days.
Where [3] appears, read: active ingredient concentration 3.5 ppm in water, twenty last-instar larvae, after one day.

Turning to `COC(=O)C(C)(CCC(F)(F)C(F)(F)C(F)(F)F)S(=O)(=O)CCC(F)(F)C(F)(F)F` (stereo not drawn) [(52)], the pest or weed control at 500 ppm in the experiment on Musca domestica (24 h) is not below 70%; with Blattella germanica, 100%. The pest or weed control at 3.5 ppm in the experiment with Culex pipiens pallens is not below 90%.

For `NC(=O)C(Cl)(CCC(F)(F)F)S(=O)(=O)CCC(F)(F)C(F)(F)F` (stereo not drawn) [(94)], the pest or weed control at 500 ppm is not below 70% with Musca domestica (setting [1]) and 100% in the experiment with Blattella germanica (setting [2]). For the same compound, in the experiment with Culex pipiens pallens (setting [3]), the pest or weed control at 3.5 ppm is not below 90%.

Take `CC(C#N)(CC(F)(F)C(F)(F)C(F)(F)F)S(=O)(=O)CCC(F)(F)F` (stereo not drawn) [(12)]: the results for the pest or weed control at 500 ppm with Musca domestica (24 h) and with Blattella germanica were not below 70% and 100%, respectively. Moreover, the pest or weed control at 3.5 ppm with Culex pipiens pallens was not below 90%.

In the case of `CC(CCC(F)(F)C(F)(F)F)(SCCC(F)(F)F)C(N)=O` (stereo not drawn) [(70)], the pest or weed control at 500 ppm in the experiment on Musca domestica (setting [1]) is not below 70%; in the experiment with Blattella germanica (setting [2]), 100%. Moreover, in the experiment with Culex pipiens pallens (setting [3]), the pest or weed control at 3.5 ppm was not below 90%.

With `NC(=O)C(F)(CCC(F)(F)C(F)(F)C(F)(F)F)S(=O)(=O)CCC(F)(F)F` (stereo not drawn) [(91)], the pest or weed control at 500 ppm was not below 70% in the experiment on Musca domestica (24 h) and 100% in the experiment on Blattella germanica. In addition, in the experiment on Culex pipiens pallens, the pest or weed control at 3.5 ppm is not below 90%.

Take `CCNC(=O)C(C)(CCC(F)(F)C(F)(F)F)S(=O)(=O)CCC(F)(F)F` (stereo not drawn) [(37)]: the pest or weed control at 500 ppm in the experiment with Musca domestica (setting [1]) is not below 70%; in the experiment on Blattella germanica (setting [2]), 100%. The pest or weed control at 3.5 ppm in the experiment with Culex pipiens pallens (setting [3]) is not below 90%.

For `CC(CCC(F)(F)C(F)(F)F)(C(N)=S)S(=O)(=O)CCC(F)(F)F` (stereo not drawn) [(49)], the figures for the pest or weed control at 500 ppm with Musca domestica (setting [1]) and in the experiment on Blattella germanica (setting [2]) were not below 70% and 100%, respectively. Further, in the experiment on Culex pipiens pallens (setting [3]), the pest or weed control at 3.5 ppm was not below 90%.

Regarding `COC(=O)C(C)(CCC(F)(F)C(F)(F)F)S(=O)(=O)CCC(F)(F)C(F)(F)F` (stereo not drawn) [(30)], the pest or weed control at 500 ppm was not below 70% with Musca domestica (setting [1]) and 100% in the experiment on Blattella germanica (setting [2]). Also, the pest or weed control at 3.5 ppm with Culex pipiens pallens (setting [3]) is not below 90%.

For `NC(=O)C(Cl)(CCC(F)(F)C(F)(F)F)S(=O)(=O)CCC(F)(F)C(F)(F)F` (stereo not drawn) [(89)], the pest or weed control at 500 ppm in the experiment on Musca domestica (setting [1]) is not below 70%; with Blattella germanica (setting [2]), 100%. In the experiment with Culex pipiens pallens (setting [3]), the pest or weed control at 3.5 ppm is not below 90%.

As to `NC(=O)C(Cl)(CCC(F)(F)C(F)(F)C(F)(F)F)S(=O)(=O)CCC(F)(F)C(F)(F)F` (stereo not drawn) [(97)], the values for the pest or weed control at 500 ppm in the experiment on Musca domestica (24 h) and in the experiment with Blattella germanica were not below 70% and 100%, respectively. In addition, the pest or weed control at 3.5 ppm in the experiment with Culex pipiens pallens is not below 90%.

As to `COC(=O)C(Br)(CCC(F)(F)C(F)(F)F)S(=O)(=O)CCC(F)(F)F` (stereo not drawn) [(65)], the pest or weed control at 500 ppm was not below 70% in the experiment on Musca domestica (setting [1]) and 100% in the experiment with Blattella germanica (setting [2]). The pest or weed control at 3.5 ppm with Culex pipiens pallens (setting [3]) was not below 90%.

For the compound `CNC(=O)C(F)(CCC(F)(F)C(F)(F)F)S(=O)(=O)CCC(F)(F)F` (stereo not drawn) [(69)], the pest or weed control at 500 ppm in the experiment on Musca domestica (setting [1]) is not below 70%; with Blattella germanica (setting [2]) it was 100%. In the experiment with Culex pipiens pallens (setting [3]), the pest or weed control at 3.5 ppm was not below 90%.

For the compound `CNC(=O)C(CCC(F)(F)C(F)(F)F)S(=O)(=O)CCC(F)(F)F` (stereo not drawn) [(32)], the results for the pest or weed control at 500 ppm in the experiment on Musca domestica (setting [1]) and with Blattella germanica (setting [2]) were not below 70% and 100%, respectively. For the same compound, the pest or weed control at 3.5 ppm with Culex pipiens pallens (setting [3]) was not below 90%.

Turning to `CCOC(=O)C(C)(CCC(F)(F)C(F)(F)F)S(=O)(=O)CCC(F)(F)F` (stereo not drawn) [(46)], the pest or weed control at 500 ppm in the experiment with Musca domestica (setting [1]) is not below 70%; in the experiment on Blattella germanica (setting [2]) it was 100%. The pest or weed control at 3.5 ppm in the experiment with Culex pipiens pallens (setting [3]) was not below 90%.

As to `COC(=O)C(Cl)(CCC(F)(F)C(F)(F)F)S(=O)(=O)CCC(F)(F)F` (stereo not drawn) [(58)], the results for the pest or weed control at 500 ppm in the experiment with Musca domestica (setting [1]) and with Blattella germanica (setting [2]) were not below 70% and 100%, respectively. Besides, the pest or weed control at 3.5 ppm with Culex pipiens pallens (setting [3]) is not below 90%.

For the compound `CC(CCC(F)(F)C(F)(F)F)(C(N)=O)S(=O)(=O)CCC(F)(F)C(F)(F)F` (stereo not drawn) [(61)], the pest or weed control at 500 ppm is not below 70% with Musca domestica (setting [1]) and 100% with Blattella germanica (setting [2]). Also, the pest or weed control at 3.5 ppm in the experiment on Culex pipiens pallens (setting [3]) was not below 90%.

As for `N#CC(CC(F)(F)C(F)(F)C(F)(F)F)S(=O)(=O)CCC(F)(F)F` (stereo not drawn) [(4)], the pest or weed control at 500 ppm in the experiment with Musca domestica (24 h) was not below 70%; with Blattella germanica it was 100%. Further, the pest or weed control at 3.5 ppm with Culex pipiens pallens is not below 90%.
